# Reference: US20170015626A1, “TWO-PHOTON-ABSORBING COMPOUND” (OTSUKA ELECTRONICS CO., LTD., priority 2014, published 2017)
# System: Hek293 cells
# Assay: Fluorescence staining experiment on cells, observed by two-photon excitation fluorescence microscopy
# Type: cell-based, Human
# Details: for emission of a red fluorescence from the stained cells by two-photon excitation fluorescence microscopy: Hek293 cells stained at 1 μmol dm^−3 for 12 hours, band pass filter central wavelength 650 nm; for fluorescence staining of HeK293 cells: final concentration 1 μmol dm^−3, final DMSO 0.1% (v/v), incubated for 12 hours
# Method: Human embryonic kidney cells, namely, Hek293 cells were used as model cells for staining. The Hek293 cells were cultured in Dulbecco's Modified Eagle's Medium (DMEM) containing 10% (v/v) fetal bovine serum and 1% (v/v) […] and streptomycin under conditions of 37° C. and 5% CO2.
# For preparation of microscopic observation, Hek293 cells were subcultured on a 35-mm glass-based dish, to result in a cell density of 1×10^5 cells/dish. 24 hours after the subculture, adhesion of the cells to the dish was confirmed by microscopic observation. The medium was removed from the dish, and the resulting cells were then washed with a phosphate buffered saline (PBS) twice. 2 mL of DMEM medium not containing phenol red (final concentration of PY: 1 μmol dm^−3, final DMSO concentration: 0.1% (v/v)), to which 2 μL of dimethyl sulfoxide (DMSO) solution of the 1×10^−3 mol/dm^−3 naphthalene derivative (I), anthracene derivative (II) or pyrene derivative (III) had been added, was placed in the dish, and it was then incubated for 12 hours for staining. Immediately before microscopic observation, the medium containing the pigment was removed from the dish, and PBS was then used to wash the cells twice. After that, 2 mL of the DMEM medium not containing phenol red was added to the dish.
# A two-photon excitation fluorescence microscope was produced using Optical Block (Hamamatsu Photonics K. K.). As a light source, Femtosecond titanium-sapphire laser (Mira900, Coherent) was used. A mirror unit equipped with a Galvano scanner for scanning a focal point, a short-pass dichroic mirror (FF750-SDi02-25×36, Semrock) having a cutoff wavelength at 750 nm, and a band pass filter (FF01-650/60-25, Semrock) having a central wavelength at 650 nm was inserted into the optical system. For detection of fluorescence, a photomultiplier tube (R928, Hamamatsu Photonics K. K.) was used, and DC was detected at an applied voltage of 1000 V, through a preamplifier (5 MHz)-equipped socket. USB-6251 BNC was used as DAQ, and Lab VIEW2011 (National Instruments) was used as a platform of the control program. As a sample stage, KZGO620-G was used, and as objective lens, infinity corrected objective lens with a magnification of 40 and NA of 1.15 was used.
Compound,emission of a red fluorescence from the stained cells by two-photon excitation fluorescence microscopy,fluorescence staining of HeK293 cells
CCCCc1cc(C=Cc2cc[n+](C)cc2)c2ccc3c(CCCC)cc(C=Cc4cc[n+](C)cc4)c4ccc1c2c43.[I-].[I-] [pyrene derivative (III)],emission of a red fluorescence from the aforementioned cells was observed,could achieve the fluorescence staining of HeK293 cells
C[n+]1ccc(/C=C/c2ccc3cc4cc(/C=C/c5cc[n+](C)cc5)ccc4cc3c2)cc1 [anthracene derivative (II)],emission of a red fluorescence from the aforementioned cells was observed,could achieve the fluorescence staining of HeK293 cells
C[n+]1ccc(/C=C/c2ccc3cc(/C=C/c4cc[n+](C)cc4)ccc3c2)cc1 [naphthalene derivative (I)],emission of a red fluorescence from the aforementioned cells was observed,could achieve the fluorescence staining of HeK293 cells
